Here are results for two compounds from patent publication US10179771B2 (GALAPAGOS NV, priority 2014, dated 2019).

Where only a bound is given, the exact number is not on record here.

Assay [1] addresses T1, Recombinant human JAK1 catalytic domain (Homo sapiens, UniProt P23458).
T1 construct: Recombinant human JAK1 (catalytic domain, amino acids 866-1154; catalog number PV4774); purchased Invitrogen PV4774
Briefly: JAK1 inhibition assay (polyGT substrate / Ulight-JAK1 peptide assay). The format is biochemical. The conditions noted are these: Comparative Compounds (Table VI). As for the experimental part:
Recombinant human JAK1 catalytic domain (amino acids 850-1154; catalog number 08-144) was purchased from Carna Biosciences. 10 ng of JAK1 is incubated with 12.5 μg polyGT substrate (Sigma catalog number P0275) in kinase reaction buffer (15 mM Tris-HCl pH 7.5, 1 mM DTT, 0.01% Tween-20, 10 mM MgCl2, 2 μM non-radioactive ATP, 0.25 ρCi ^33P-gamma-ATP (GE Healthcare, catalog number AH9968) final concentrations) with or without 5 μL containing test compound or vehicle (DMSO, 1% final concentration), in a total volume of 25 μL, in a polypropylene 96-well plate (Greiner, V-bottom). After 45 min at 30° C., reactions are stopped by adding of 25 μL/well of 150 mM phosphoric acid. All of the terminated kinase reaction is transferred to prewashed (75 mM phosphoric acid) 96 well filter plates (Perkin Elmer catalog number 6005177) using a cell harvester (Perkin Elmer). Plates are washed 6 times with 300 μL per well of a 75 mM phosphoric acid solution and the bottom of the plates is sealed. 40 μL/well of Microscint-20 is added, the top of the plates is sealed and readout is performed using the Topcount (Perkin Elmer). Kinase activity is calculated by subtracting counts per min (cpm) obtained in the presence of a positive control inhibitor (10 μM staurosporine) from cpm obtained in the presence of vehicle. The ability of a test compound to inhibit this activity is determined as:
(§1) [formula] • RFU test compound=RFU determined for sample with test compound present • RFU control=RFU determined for sample with positive control inhibitor • RFU vehicle=RFU determined in the presence of vehicle
Dose dilution series are prepared for the compounds enabling the testing of dose-response effects in the JAK1 assay and the calculation of the IC50 for each compound. Each compound is routinely tested at concentration of 20 μM followed by a 1/3 serial dilution, 8 points (20 μM-6.67 μM-2.22 μM-740 nM-247 nM-82 nM-27 nM-9 nM) in a final concentration of 1% DMSO. When potency of compound series increased, more dilutions are prepared and/or the top concentration was lowered (e.g. 5 μM, 1 μM).
Recombinant human JAK1 (catalytic domain, amino acids 866-1154; catalog number PV4774) was purchased from Invitrogen. 1 ng of JAK1 was incubated with 20 nM Ulight-JAK1 (tyr1023) peptide (Perkin Elmer catalog number TRF0121) in kinase reaction buffer (25 mM MOPS pH6.8, 0.01% Brij-35, 5 mM MgCl2, 2 mM DTT, 7 μM ATP) with or without 4 μL containing test compound or vehicle (DMSO, 1% final concentration), in a total volume of 20 μL, in a white 384 Opti plate (Perkin Elmer, catalog number 6007290). After 60 min at room temperature, reactions were stopped by adding 20 μL/well of detection mixture (1× detection buffer (Perkin Elmer, catalog number CR97-100C), 0.5 nM Europium-anti-phosphotyrosine (PT66) (Perkin Elmer, catalog number AD0068), 10 mM EDTA). Readout is performed using the Envision with excitation at 320 nm and measuring emission at 615 nm (Perkin Elmer). Kinase activity was calculated by subtracting relative fluorescence units (RFU) obtained in the presence of a positive control inhibitor (10 μM staurosporine) from RFU obtained in the presence of vehicle. The ability of a test compound to inhibit this activity was determined as: Percentage inhibition=((RFU determined for sample with test compound present−RFU determined for sample with positive control inhibitor) divided by (RFU determined in the presence of vehicle−RFU determined for sample with positive control inhibitor))*100.
Dose dilution series were prepared for the compounds enabling the testing of dose-response effects in the JAK1 assay and the calculation of the IC50 for the compound. Each compound is routinely tested at concentration of 20 μM followed by a 1/5 serial dilution, 10 points in a final concentration of 1% DMSO. When potency of compound series increases, more dilutions are prepared and/or the top concentration are lowered (e.g. 5 μM, 1 μM). […]

Assay [2] has as its target T2, Recombinant human JAK2 catalytic domain (Homo sapiens, UniProt O60674).
T2 construct: Recombinant human JAK2 catalytic domain (amino acids 808-1132; catalog number PV4210); GST; purchased Invitrogen PV4210
Briefly: JAK2 inhibition assay (polyGT substrate / Ulight-JAK1 peptide assay). It is filed as biochemical. The conditions noted are these: Comparative Compounds (Table VIII). The procedure:
Recombinant human JAK2 catalytic domain (amino acids 808-1132; catalog number PV4210) was purchased from Invitrogen. 0.025 mU of JAK2 is incubated with […] polyGT substrate (Sigma catalog number P0275) in kinase reaction buffer (5 mM MOPS pH 7.5, 9 mM MgAc, 0.3 mM EDTA, 0.06% Brij and 0.6 mM DTT, 1 μM non-radioactive ATP, 0.25 μCi ^33P-gamma-ATP (GE Healthcare, catalog number AH9968) final concentrations) with or without 5 μL containing test compound or vehicle (DMSO, 1% final concentration), in a total volume of 25 μL, in a polypropylene 96-well plate (Greiner, V-bottom). After 90 min at 30° C., reactions are stopped by adding of 25 μL/well of 150 mM phosphoric acid. All of the terminated kinase reaction is transferred to prewashed (75 mM phosphoric acid) 96 well filter plates (Perkin Elmer catalog number 6005177) using a cell harvester (Perkin Elmer). Plates are washed 6 times with 300 μL per well of a 75 mM phosphoric acid solution and the bottom of the plates is sealed. 40 μL/well of Microscint-20 is added, the top of the plates is sealed and readout is performed using the Topcount (Perkin Elmer). Kinase activity is calculated by subtracting counts per min (cpm) obtained in the presence of a positive control inhibitor (10 μM staurosporine) from cpm obtained in the presence of vehicle. The ability of a test compound to inhibit this activity is determined as:
as §1
Dose dilution series are prepared for the compounds enabling the testing of dose-response effects in the JAK2 assay and the calculation of the IC50 for each compound. Each compound is routinely tested at concentration of 20 μM followed by a 1/3 serial dilution, 8 points (20 μM-6.67 μM-2.22 μM-740 nM-247 nM-82 nM-27 nM-9 nM) in a final concentration of 1% DMSO. When potency of compound series increased, more dilutions are prepared and/or the top concentration is lowered (e.g. 5 μM, 1 μM).
Recombinant human JAK2 (catalytic domain, amino acids 866-1154; catalog number PV4210) was purchased from Invitrogen. 0.0125 mU of JAK2 was incubated with 25 nM Ulight-JAK1 (tyr1023) peptide (Perkin Elmer catalog number TRF0121) in kinase reaction buffer (25 mM HEPES pH7.0, 0.01% Triton X-100, 7.5 mM MgCl2, 2 mM DTT, 7.5 μM ATP) with or without 4 μL containing test compound or vehicle (DMSO, 1% final concentration), in a total volume of 20 μL, in a white 384 Opti plate (Perkin Elmer, catalog number 6007290). After 60 min at room temperature, reactions were stopped by adding 20 μL/well of detection mixture (1× detection buffer (Perkin Elmer, catalog number CR97-100C), 0.5 nM Europium-anti-phosphotyrosine (PT66) (Perkin Elmer, catalog number AD0068), 10 mM EDTA). Readout is performed using the Envision with excitation at 320 nm and measuring emission at 615 nm (Perkin Elmer). Kinase activity was calculated by subtracting relative fluorescence units (RFU) obtained in the presence of a positive control inhibitor (10 μM staurosporine) from RFU obtained in the presence of vehicle. The ability of a test compound to inhibit this activity was determined as: Percentage inhibition=((RFU determined for sample with test compound present−RFU determined for sample with positive control inhibitor) divided by (RFU determined in the presence of vehicle−RFU determined for sample with positive control inhibitor))*100.
Dose dilution series are prepared for compound enabling the testing of dose-response effects in the JAK2 assay and the calculation of the IC50 for the compound. Each compound is routinely tested at concentration of 20 μM followed by a 1/5 serial dilution, 10 points in a final concentration of 1% DMSO. When potency of compound series increases, more dilutions are prepared and/or the top concentration are lowered (e.g. 5 μM, 1 μM). […]

T1 sequence (P23458 866-1154): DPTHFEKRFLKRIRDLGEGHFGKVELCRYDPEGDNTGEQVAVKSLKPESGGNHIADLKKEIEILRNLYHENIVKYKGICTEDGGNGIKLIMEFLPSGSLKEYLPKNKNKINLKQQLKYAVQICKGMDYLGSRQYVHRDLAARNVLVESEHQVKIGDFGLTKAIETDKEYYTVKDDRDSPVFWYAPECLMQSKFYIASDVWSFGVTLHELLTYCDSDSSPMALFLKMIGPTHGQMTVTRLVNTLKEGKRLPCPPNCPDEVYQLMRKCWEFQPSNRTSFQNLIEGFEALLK
T2 sequence (O60674 808-1132): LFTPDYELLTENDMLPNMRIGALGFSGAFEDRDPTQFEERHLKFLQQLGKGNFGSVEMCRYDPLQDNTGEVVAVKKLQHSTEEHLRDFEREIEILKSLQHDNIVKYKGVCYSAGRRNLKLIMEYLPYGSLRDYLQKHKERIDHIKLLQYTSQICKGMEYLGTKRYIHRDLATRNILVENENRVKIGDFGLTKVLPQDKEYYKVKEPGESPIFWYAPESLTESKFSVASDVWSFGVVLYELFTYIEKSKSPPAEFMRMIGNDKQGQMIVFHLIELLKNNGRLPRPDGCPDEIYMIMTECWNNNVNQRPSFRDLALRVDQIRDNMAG

Take `Cn1cnc2ccc(Nc3ccc(CC#N)cc3)cc21` [A, 2-[4-[(3-methylbenzimidazol-5-yl)amino]phenyl]acetonitrile, reference compound]: the IC50 in assay [1] and in assay [2] was more than 500 nM each time.
For the compound `Cn1cnc2ccc(Nc3ccc4c(c3)OCCO4)cc21` [B, reference compound], the IC50 in assay [1] and in assay [2] was more than 500 nM in each case.
